Results on one compound are retold here after article PMC10951960, “CGP7930 - An allosteric modulator of GABABRs, GABAARs and inwardly-rectifying potassium channels” (Neuropharmacology, 2023).

Assay [1] has as its system GABAAR-mediated tonic inhibition in hippocampal neurons. The assay can be described thus: tonic inhibition: baseline holding current and RMS noise in cultured hippocampal neurons. Format: cell-based, rat. Here is the method: (§1) Briefly, single cells derived from dissected hippocampi were seeded onto glass coverslips coated with poly-D-lysine in a plating medium containing minimum essential media with 5% v/v heat-inactivated FCS, 5% v/v heat-inactivated horse serum, penicillin-G/streptomycin (100 U/100 μg/ml), 2 mM L-glutamine, and 20 mM glucose. Two hr after plating the media was changed to a Neurobasal-A based maintenance media supplemented with 1% v/v B-27, penicillin-G/streptomycin (100 U/100 μg/ml), 0.5% v/v Glutamax and 35 mM glucose.
(§2) Spontaneous inhibitory postsynaptic currents (sIPSCs) were recorded from cultured hippocampal neurons at 12–17 days in vitro (DIV). […] For recording K^+ currents in GIRK cells and neurons, the bath solution was switched to a high K^+ solution containing 25 mM KCl and reduced NaCl (120 mM), to shift the equilibrium potential for K^+ from approximately −90 to −47 mV, thus reversing the direction of K^+ current flux to net inward. GABABR-activated K^+ currents in cultured neurons were recorded in the additional presence of 2 mM kynurenic acid and 20 μM picrotoxin.
(§3) Borosilicate glass electrodes (3–5 MΩ) were filled with a K^+-based internal solution for recording GIRK currents containing (mM): 120 KCl, 2 MgCl2, 11 EGTA, 30 KOH, 10 HEPES, 1 CaCl2, 1 GTP, 2 ATP, 14 creatine phosphate, pH 7.0. GABAAR currents and sIPSCs were recorded with a Cs-based internal solution containing (mM): 120 CsCl, 1 MgCl2, 11 EGTA, 30 KOH, 10 HEPES, 1 CaCl2, and 2 K2ATP; pH 7.2. […] Cells were held at −60 mV (sIPSCs) or −60/−70 mV (K^+ currents). Voltage clamp recordings were undertaken after optimising series resistance (Rs, <10 MΩ) and compensating for the whole-cell membrane capacitance. Membrane currents were filtered at 5 kHz (−3 dB, 6th pole Bessel, 36 dB/octave) and stored for analysis with Clampex 10.
For tonic inhibition, to determine the average holding currents, a 30 s continuous holding current recording was sampled every 1 s, discarding epochs that coincided with sIPSCs. Any effect of CGP7930 or bicuculline on the holding current was defined by subtracting the average holding currents in control and during drug application. The baseline root-mean-square current variance (RMS) was calculated before and during drug treatment. This was estimated from a continuous (20 s) current recording, sampled every 100 ms. The median current was calculated every 5 s and values more than twice the standard deviation from the median (usually due to IPSCs) were eliminated. All drugs were applied using a U-tube rapid drug application system, or more slowly via bath perfusion.
We assessed the effect of CGP7930 on tonic inhibition in hippocampal cultured neurons.

Assay [2] has as its system GABAAR-mediated sIPSCs in hippocampal neurons. The assay can be described thus: phasic inhibition: sIPSCs in cultured hippocampal neurons in the presence of CGP55845 (1 μM). Format: cell-based, rat. To be noted: mean ± SEM. Here is the method:
as §1, §2, §3
sIPSCs were recorded at room temperature (20–23 °C) and detected using WinEDR and WinWCP (Strathclyde Electrophysiology Software UK), and frequency was calculated for 60 s recording epochs. For sIPSC amplitudes, several hundred events were recorded per condition and analysed as an average amplitude per cell.
For kinetic analysis, individual uncontaminated sIPSCs were isolated and the average 10–90% rise time and exponential decay times were measured from the mean sIPSC waveform. Weighted decay times are reported encompassing mono- and bi-exponentially decaying events according to the equation:τw = (A1 *τ1 + A2 *τ2) / (A1 + A2)where τ1 and τ2 are exponential decay time constants, and A1 and A2 are the relative amplitude contributions of τ1 and τ2, respectively.

In the case of `CC(C)(CO)Cc1cc(C(C)(C)C)c(O)c(C(C)(C)C)c1` [CGP7930, 3-(3′,5′-Di-tert-butyl-4′-hydroxy) phenyl-2,2-dimethylpropanol], the “Membrane current RMS noise” value in assay [1] (100 nM) is listed as 6.4 ± 0.4 (9) pA; in assay [1] (500 nM), 8.6 ± 0.9 (9) pA; in assay [1] (1 μM) it was 12.7 ± 1.7 (9) pA; in assay [1] (1 μM + Bic (50 μM bicuculline)) it was 5.7 ± 0.5 (9) pA. The “Tonic currents (change in baseline holding current)” value is listed as −441.6 ± 124.7 (9) pA in assay [1] (500 nM to 1 μM), 372.0 ± 88.5 (9) pA in assay [1] (1 μM CGP7930 to 50 μM bicuculline (Bic)), −115.6 ± 37.8 (9) pA in assay [1] (100–500 nM) and −21.41 ± 5.4 (9) pA in assay [1] (Control to 100 nM). In addition, the “sIPSC Amplitude” value is recorded as −70.0 ± 8.9 (7) pA in assay [2] (100 nM), −73.9 ± 8.8 (7) pA in assay [2] (500 nM) and −124.6 ± 37.7 (7) pA in assay [2] (1 μM). The “sIPSC Decay τ (weighted decay time)” value in assay [2] (100 nM) is 61.9 ± 7.2 (7) ms; in assay [2] (500 nM) it was 100.8 ± 11 (7) ms; in assay [2] (1 μM), 205.5 ± 117 (7) ms. Moreover, the “sIPSC Frequency” value in assay [2] (100 nM) is listed as 3.28 ± 0.62 (8) Hz; in assay [2] (500 nM), 1.53 ± 0.32 (8) Hz; in assay [2] (1 μM), 0.38 ± 0.07 (8) Hz. The “sIPSC Rise time (10–90%)” value was 2.5 ± 0.20 (9) ms in assay [2] (100 nM), 3.2 ± 0.39 (9) ms in assay [2] (500 nM) and 16.1 ± 5.2 (9) ms in assay [2] (1 μM).
